This note sets out measurements from ChEMBL document CHEMBL1150530, “Thromboxane receptor antagonism combined with thromboxane synthase inhibition. 6. 4-substituted 3-pyridinylalkanoic acids” (Bioorg Med Chem Lett, 1992).

For experiment [1], the species on record is Homo sapiens. In words: Inhibitory concentration against U 46619 induced aggregation of human washed platelets(WP). It is filed as functional.
The species entered for experiment [2] is Homo sapiens. In words: Inhibitory concentration against U 46619 induced aggregation of human platelet rich plasma(PRP). It is filed as functional.
In experiment [3] the target is T1, Thromboxane-A synthase (Homo sapiens, UniProt P24557).
T1 sequence (P24557 whole entry): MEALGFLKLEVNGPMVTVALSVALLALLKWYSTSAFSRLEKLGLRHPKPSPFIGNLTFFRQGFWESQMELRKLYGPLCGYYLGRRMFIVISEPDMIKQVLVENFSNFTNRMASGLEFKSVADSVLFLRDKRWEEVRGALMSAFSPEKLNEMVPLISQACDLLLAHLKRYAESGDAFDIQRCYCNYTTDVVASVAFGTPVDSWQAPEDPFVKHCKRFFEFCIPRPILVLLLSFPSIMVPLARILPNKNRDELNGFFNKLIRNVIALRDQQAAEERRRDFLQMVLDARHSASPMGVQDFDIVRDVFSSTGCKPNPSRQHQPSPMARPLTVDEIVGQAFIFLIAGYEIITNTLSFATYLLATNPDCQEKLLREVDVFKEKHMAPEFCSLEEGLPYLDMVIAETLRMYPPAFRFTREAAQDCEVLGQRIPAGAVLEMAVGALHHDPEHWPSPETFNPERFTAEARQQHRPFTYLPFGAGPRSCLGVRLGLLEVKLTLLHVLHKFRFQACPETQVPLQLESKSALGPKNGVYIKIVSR
In words: Inhibitory concentration against thromboxane synthase enzyme.

Experiment [4] is filed under the species Homo sapiens. In words: Inhibitory concentration against U 46619 induced aggregation of human platelet rich plasma(PRP); IA=Inactive. Type of experiment: functional.
Experiment [5] is filed under the species Homo sapiens. The experiment in a line: Inhibitory concentration against U 46619 induced aggregation of human washed platelets(WP); IA=Inactive. Type of experiment: functional.
Experiment [6] deals with T1, Thromboxane-A synthase. In words: Inhibitory concentration against thromboxane synthase enzyme; IA=Inactive.

As a reminder, the IC50 is the concentration that inhibits the measured activity by half. A lower IC50 goes with greater potency in that assay. Turning to `O=C(O)CCCCCc1cnccc1CNS(=O)(=O)c1ccc(Cl)cc1`, the results for the IC50 in experiment [1], in experiment [2] and in experiment [3] were 220 nM, 1080 nM and 66 nM, respectively.
For `O=C(O)CCCCCCc1cnccc1CCCNS(=O)(=O)c1ccc(Cl)cc1`, in that order: 1440 nM, 7970 nM and 15 nM.
In the case of `O=C(O)CCCCCc1cnccc1CCNS(=O)(=O)c1ccc(Cl)cc1`, the half-inhibitory concentration (IC50) was determined as 195 nM in experiment [1], 610 nM in experiment [2] and 43 nM in experiment [3].
For the compound `O=C(O)CCCCCc1cnccc1CCCNS(=O)(=O)c1ccc(Cl)cc1`, the half-inhibitory concentration (IC50) in experiment [1] was determined as 36 nM; in experiment [2] it was 670 nM; in experiment [3], 100 nM.
In the case of `O=C(O)CCCCCCc1cnccc1NS(=O)(=O)c1ccc(Cl)cc1`, the IC50 entry in experiment [4], in experiment [5] and in experiment [6] was “Not Active” each time.
In the case of `O=C(O)CCCCCCc1cnccc1CCNS(=O)(=O)c1ccc(Cl)cc1`, the values for the IC50 in experiment [1], in experiment [2] and in experiment [3] were 94 nM, 440 nM and 80 nM, respectively.
